Assay results taken from patent US11453683B1, “KRas G12D inhibitors” (Mirati Therapeutics, Inc., priority 2019, dated 2022).

Test system: KRas G12D-mediated phosphorylation of ERK
Assay: Inhibition of KRas G12D-mediated phosphorylation of ERK in AGS cells
Assay type: cell-based
Details: Homo sapiens; AGS cells expressing G12D, 3 hours, phospho-ERK normalized to GAPDH
Method: Cells were plated in tissue culture treated 96 well plates at a density of 40,000 cells/well and allowed to attach for 12-14 hours. Diluted compounds were then added in a final concentration of 0.5% DMSO. After 3 hours, the medium was removed, 150 μL of 4.0% formaldehyde was added and the plates incubated at room temperature for 20 minutes. The plates were washed with PBS, and permeabilized with 150 μL of ice cold 100% methanol for 10 minutes. Non-specific antibody binding to the plates was blocked using 100 μL Licor blocking buffer (Li-Cor Biotechnology, Lincoln Nebr.) for 1 hour at room temperature.
The amount of phospho-ERK was determined using an antibody specific for the phosphorylated form of ERK and compared to the amount of GAPDH. Primary antibodies used for the detection were added as follows: Phospho-ERK (Cell Signaling cs-9101) diluted 1:500 and GAPDH (Millipore MAB374) diluted 1:5000 in Licor block+0.05% Tween 20. The plates were incubated for 2 hours at room temperature. The plates were washed with PBS+0.05% Tween 20.
Secondary antibodies used to visualize primary antibodies were added as follows: Anti-rabbit-680 diluted 1:1000 and Anti-mouse-800 diluted 1:1000 both in Licor block+0.05% TweeN2O, and were incubated for 1 hour at room temperature. The plates were washed with PBS+0.05% Tween 20. A 100 μL aliquot of PBS was added to each well and the plates were read on a Li-Cor Odyssey CLX plate reader.
The phospho-ERK (Thr202/Tyr204 signal was normalized to the GAPDH signal for each well and percent of DMSO control values were calculated. IC50 values were generated using a 4-parameter fit of the dose response curve

Structure (SMILES) | IC50 [nM]
Fc1ccc2cccc(-c3ncc4c(N5C[C@H]6CC[C@@H](C5)N6)nc(OC[C@@]56CCCN5C[C@H](F)C6)nc4c3F)c2c1F [Example 430, 4-((1R,5S)-3,8-diazabicyclo[3.2.1]octan-3-yl)-7-(7,8-difluoronaphthalen-1-yl)-8-fluoro-2-(((2R,7aS)-2-fluorotetrahydro-1H-pyrrolizin-7a(5H)-yl)methoxy)pyrido[4,3-d]pyrimidine] | 141
Fc1c(-c2c(C(F)(F)F)ccc3[nH]ncc23)ncc2c(N3CC4CCC(C3)N4)nc(OCC34CCCN3C[C@H](F)C4)nc12 (mixture of isomers) [Example 343, 4-((1R,5S)-3,8-diazabicyclo[3.2.1]octan-3-yl)-8-fluoro-2-((2-fluorotetrahydro-1H-pyrrolizin-7a(5H)-yl)methoxy)-7-(5-(trifluoromethyl)-1H-indazol-4-yl)pyrido[4,3-d]pyrimidine] | 1620
Oc1cc(-c2ncc3c(N4C[C@H]5CC[C@@H](C4)N5)nc(OCCC(F)(F)F)nc3c2F)c2ccccc2c1 [Example 81, 4-(4-((1R,5S)-3,8-diazabicyclo[3.2.1]octan-3-yl)-8-fluoro-2-(3,3,3-trifluoropropoxy)pyrido[4,3-d]pyrimidin-7-yl)naphthalen-2-ol] | 8290
Fc1c(-c2cccc3cccc(OC(F)(F)F)c23)ncc2c(N3C[C@H]4CC[C@@H](C3)N4)nc(OCC34CCCN3CCC4)nc12 [Example 345, 4-((1R,5S)-3,8-diazabicyclo[3.2.1]octan-3-yl)-8-fluoro-2-((tetrahydro-1H-pyrrolizin-7a(5H)-yl)methoxy)-7-(8-(trifluoromethoxy)naphthalen-1-yl)pyrido[4,3-d]pyrimidine] | 1470
Oc1cc(-c2ncc3c(N4C[C@H]5CC[C@@H](C4)N5)nc(OCC45CCCN4CCC5)nc3c2F)c2c(F)cccc2c1 [Example 367, 4-(4-((1R,5S)-3,8-diazabicyclo[3.2.1]octan-3-yl)-8-fluoro-2-((tetrahydro-1H-pyrrolizin-7a(5H)-yl)methoxy)pyrido[4,3-d]pyrimidin-7-yl)-5-fluoronaphthalen-2-ol tris(2,2,2-trifluoroacetate)] | 112
Fc1c(-c2cncc3cccc(Cl)c23)ncc2c(N3C[C@H]4CC[C@@H](C3)N4)nc(OC[C@]34CCCN3C[C@@H](F)C4)nc12 [Example 203, 4-((1R,5S)-3,8-diazabicyclo[3.2.1]octan-3-yl)-7-(5-chloroisoquinolin-4-yl)-8-fluoro-2-(((2S,7aR)-2-fluorotetrahydro-1H-pyrrolizin-7a(5H)-yl)methoxy)pyrido[4,3-d]pyrimidine] | 2180
Fc1c(-c2cccc3cccc(C(F)(F)F)c23)ncc2c(N3C[C@H]4CC[C@@H](C3)N4)nc(OC[C@@]34CCCN3C[C@H](F)C4)nc12 [Example 419, 4-((1R,5S)-3,8-diazabicyclo[3.2.1]octan-3-yl)-8-fluoro-2-(((2R,7aS)-2-fluorotetrahydro-1H-pyrrolizin-7a(5H)-yl)methoxy)-7-(8-(trifluoromethyl)naphthalen-1-yl)pyrido[4,3-d]pyrimidine] | 2780
Oc1cc(-c2ncc3c(N4C[C@H]5CC[C@@H](C4)N5)nc(OCCC(F)(F)F)nc3c2F)c2c(Cl)cccc2c1 [Example 393, 4-(4-((1R,5S)-3,8-diazabicyclo[3.2.1]octan-3-yl)-8-fluoro-2-(3,3,3-trifluoropropoxy)pyrido[4,3-d]pyrimidin-7-yl)-5-chloronaphthalen-2-ol] | 7580
COC(=O)NC[C@H]1CC[C@@]2(COc3nc(N4CC5CCC(C4)N5)c4cnc(-c5cccc6cccc(Cl)c56)c(F)c4n3)CCCN12 [Example 411, methyl ((7a-(((4-(3,8-diazabicyclo[3.2.1]octan-3-yl)-7-(8-chloronaphthalen-1-yl)-8-fluoropyrido[4,3-d]pyrimidin-2-yl)oxy)methyl)hexahydro-1H-pyrrolizin-3-yl)methyl)carbamate] | 745
CNC(=O)O[C@@H]1CN2CCC[C@]2(COc2nc(N3C[C@H]4CC[C@@H](C3)N4)c3cnc(-c4cccc5cccc(Cl)c45)c(F)c3n2)C1 [Example 435, (2S,7aR)-7a-(((4-((1R,5S)-3,8-diazabicyclo[3.2.1]octan-3-yl)-7-(8-chloronaphthalen-1-yl)-8-fluoropyrido[4,3-d]pyrimidin-2-yl)oxy)methyl)hexahydro-1H-pyrrolizin-2-yl methylcarbamate] | 1820
Fc1c(-c2cccc3cccc(Cl)c23)ncc2c(N3C[C@H]4CC[C@@H](C3)N4)nc(OCC34CCCN3CCC4)nc12 [Example 45, 4-((1R,5S)-3,8-diazabicyclo[3.2.1]octan-3-yl)-7-(8-chloronaphthalen-1-yl)-8-fluoro-2-((tetrahydro-1H-pyrrolizin-7a(5H)-yl)methoxy)pyrido[4,3-d]pyrimidine] | 840
Oc1cc(-c2ncc3c(N4C[C@H]5CC[C@@H](C4)N5)nc(OC[C@@H]4CCCN4)nc3c2F)c2ccccc2c1 [Example 50, 4-(4-((1R,5S)-3,8-diazabicyclo[3.2.1]octan-3-yl)-8-fluoro-2-(((S)-pyrrolidin-2-yl)methoxy)pyrido[4,3-d]pyrimidin-7-yl)naphthalen-2-ol] | 15400
Cc1cccnc1CCOc1nc(N2C[C@H]3CC[C@@H](C2)N3)c2cnc(-c3cc(O)cc4ccccc34)c(F)c2n1 [Example 6, 4-(4-((1R,5S)-3,8-diazabicyclo[3.2.1]octan-3-yl)-8-fluoro-2-(2-(3-methylpyridin-2-yl)ethoxy)pyrido[4,3-d]pyrimidin-7-yl)naphthalen-2-ol] | 11500
N#Cc1cccc2cccc(-c3ncc4c(N5C[C@H]6CC[C@@H](C5)N6)nc(OCC56CCCN5CCC6)nc4c3F)c12 [Example 198, 8-(4-((1R,5S)-3,8-diazabicyclo[3.2.1]octan-3-yl)-8-fluoro-2-((tetrahydro-1H-pyrrolizin-7a(5H)-yl)methoxy)pyrido[4,3-d]pyrimidin-7-yl)-1-naphthonitrile] | 2430
O=C(OC[C@H]1CC[C@@]2(COc3nc(N4CC5CCC(C4)N5)c4cnc(-c5cccc6cccc(Cl)c56)c(F)c4n3)CCCN12)N1CCCCC1 [Example 444, ((3R,7aR)-7a-(((4-(3,8-diazabicyclo[3.2.1]octan-3-yl)-7-(8-chloronaphthalen-1-yl)-8-fluoropyrido[4,3-d]pyrimidin-2-yl)oxy)methyl)hexahydro-1H-pyrrolizin-3-yl)methyl piperidine-1-carboxylate] | 365
Oc1cc(-c2ncc3c(N4C[C@H]5CC[C@@H](C4)N5)nc(OCC45CCCN4CCC5)nc3c2F)c2c(Cl)cccc2c1 [Example 36, 4-(4-((1R,5S)-3,8-diazabicyclo[3.2.1]octan-3-yl)-8-fluoro-2-((tetrahydro-1H-pyrrolizin-7a(5H)-yl)methoxy)pyrido[4,3-d]pyrimidin-7-yl)-5-chloronaphthalen-2-ol] | 108
CN1C[C@H](OC(=O)NCCOCc2ccc(O)cc2)C[C@H]1COc1nc(N2C[C@H]3CC[C@@H](C2)N3)c2cnc(-c3cccc4cccc(Cl)c34)c(F)c2n1 [Example 260, (3R,5S)-5-(((4-((1R,5S)-3,8-diazabicyclo[3.2.1]octan-3-yl)-7-(8-chloronaphthalen-1-yl)-8-fluoropyrido[4,3-d]pyrimidin-2-yl)oxy)methyl)-1-methylpyrrolidin-3-yl (2-((4-hydroxybenzyl)oxy)ethyl)carbamate] | > 16700
Oc1cc(-c2ncc3c(N4C[C@H]5CC[C@@H](C4)N5)nc(OCCCN4CCOCC4)nc3c2F)c2ccccc2c1 [Example 22, 4-(4-((1R,5S)-3,8-diazabicyclo[3.2.1]octan-3-yl)-8-fluoro-2-(3-morpholinopropoxy)pyrido[4,3-d]pyrimidin-7-yl)naphthalen-2-ol] | 1890
CCC#Cc1cccc2cccc(-c3ncc4c(N5C[C@H]6CC[C@@H](C5)N6)nc(OCC56CCCN5CCC6)nc4c3F)c12 [Example 242, 4-((1R,5S)-3,8-diazabicyclo[3.2.1]octan-3-yl)-7-(8-(but-1-yn-1-yl)naphthalen-1-yl)-8-fluoro-2-((tetrahydro-1H-pyrrolizin-7a(5H)-yl)methoxy)pyrido[4,3-d]pyrimidine] | > 16700
CC1(C)CN2C[C@H](F)CC2(COc2nc(N3CC4CCC(C3)N4)c3cnc(-c4cccc5cccc(Cl)c45)c(F)c3n2)C1 (mixture of isomers) [Example 325, 4-((1R,5S)-3,8-diazabicyclo[3.2.1]octan-3-yl)-7-(8-chloronaphthalen-1-yl)-8-fluoro-2-((6-fluoro-2,2-dimethyltetrahydro-1H-pyrrolizin-7a(5H)-yl)methoxy)pyrido[4,3-d]pyrimidine] | > 16700
Fc1c(-c2cccc3ccccc23)ncc2c(N3C[C@H]4CC[C@@H](C3)N4)nc(OCC34CCCN3CCC4)nc12 [Example 186, 4-((1R,5S)-3,8-diazabicyclo[3.2.1]octan-3-yl)-8-fluoro-7-(naphthalen-1-yl)-2-((tetrahydro-1H-pyrrolizin-7a(5H)-yl)methoxy)pyrido[4,3-d]pyrimidine] | 3380
Cn1ccnc1CCOc1nc(N2C[C@H]3C[C@@H](O)[C@@H](C2)N3)c2cnc(-c3cccc4cccc(Cl)c34)c(F)c2n1 [Example 173, (1R,5R,6R)-3-(7-(8-chloronaphthalen-1-yl)-8-fluoro-2-(2-(1-methyl-1H-imidazol-2-yl)ethoxy)pyrido[4,3-d]pyrimidin-4-yl)-3,8-diazabicyclo[3.2.1]octan-6-ol] | 10500
